Like-named read-outs stand apart in the source and are kept apart here.
Assays:
human CYP1A2 [1] = biological target: T1, human CYP1A2 (Homo sapiens, UniProt P05177); test: biochemical
T1 sequence (P05177 1-516): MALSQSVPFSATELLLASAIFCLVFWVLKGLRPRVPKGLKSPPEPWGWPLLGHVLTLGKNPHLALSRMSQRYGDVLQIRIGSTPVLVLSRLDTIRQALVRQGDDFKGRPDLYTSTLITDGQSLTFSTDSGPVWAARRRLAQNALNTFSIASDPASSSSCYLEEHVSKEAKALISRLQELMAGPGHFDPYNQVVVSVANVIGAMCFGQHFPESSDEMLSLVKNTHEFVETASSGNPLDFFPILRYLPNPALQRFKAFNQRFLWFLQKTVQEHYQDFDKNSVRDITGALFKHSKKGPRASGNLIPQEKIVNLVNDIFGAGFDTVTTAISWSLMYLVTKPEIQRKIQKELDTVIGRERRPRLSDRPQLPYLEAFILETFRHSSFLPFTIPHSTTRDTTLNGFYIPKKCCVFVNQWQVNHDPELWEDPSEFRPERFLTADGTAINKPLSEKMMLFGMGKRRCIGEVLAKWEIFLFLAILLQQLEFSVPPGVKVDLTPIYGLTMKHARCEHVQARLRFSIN

human CYP2C9 [2] = biological target: T2, human CYP2C9 (Homo sapiens, UniProt P11712); test: biochemical
T2 sequence (P11712 whole entry): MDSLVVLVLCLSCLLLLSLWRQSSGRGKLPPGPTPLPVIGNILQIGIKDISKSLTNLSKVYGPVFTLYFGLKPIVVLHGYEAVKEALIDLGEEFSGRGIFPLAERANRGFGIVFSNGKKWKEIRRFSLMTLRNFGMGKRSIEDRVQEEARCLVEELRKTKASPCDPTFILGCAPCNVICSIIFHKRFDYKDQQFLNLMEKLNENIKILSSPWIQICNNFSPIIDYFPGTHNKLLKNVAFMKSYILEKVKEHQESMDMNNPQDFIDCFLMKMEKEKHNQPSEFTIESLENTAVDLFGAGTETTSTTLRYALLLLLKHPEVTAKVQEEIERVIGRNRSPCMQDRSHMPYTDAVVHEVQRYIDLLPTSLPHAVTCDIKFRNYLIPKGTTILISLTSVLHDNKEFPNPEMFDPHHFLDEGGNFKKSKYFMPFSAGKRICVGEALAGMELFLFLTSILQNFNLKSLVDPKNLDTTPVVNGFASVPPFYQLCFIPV

human CYP2D6 = human CYP2D6 (Homo sapiens, UniProt P10635)
human CYP2D6, sequence (P10635 whole entry): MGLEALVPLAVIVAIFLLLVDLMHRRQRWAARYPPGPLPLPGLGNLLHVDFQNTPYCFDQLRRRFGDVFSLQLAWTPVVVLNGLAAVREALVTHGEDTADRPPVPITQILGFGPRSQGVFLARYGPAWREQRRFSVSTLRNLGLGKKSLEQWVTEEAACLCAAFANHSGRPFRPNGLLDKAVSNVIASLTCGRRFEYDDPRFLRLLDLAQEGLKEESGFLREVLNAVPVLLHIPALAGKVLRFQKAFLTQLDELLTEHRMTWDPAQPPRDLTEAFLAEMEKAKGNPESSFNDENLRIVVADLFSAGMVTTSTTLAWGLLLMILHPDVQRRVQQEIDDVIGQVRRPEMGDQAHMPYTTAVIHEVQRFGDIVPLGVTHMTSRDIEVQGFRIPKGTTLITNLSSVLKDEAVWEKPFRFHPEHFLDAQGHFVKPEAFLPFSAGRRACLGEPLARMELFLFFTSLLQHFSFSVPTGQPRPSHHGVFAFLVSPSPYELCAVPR

human CYP2C19 [3] = biological target: T3, human CYP2C19 (Homo sapiens, UniProt P33261); test: biochemical
T3 sequence (P33261 whole entry): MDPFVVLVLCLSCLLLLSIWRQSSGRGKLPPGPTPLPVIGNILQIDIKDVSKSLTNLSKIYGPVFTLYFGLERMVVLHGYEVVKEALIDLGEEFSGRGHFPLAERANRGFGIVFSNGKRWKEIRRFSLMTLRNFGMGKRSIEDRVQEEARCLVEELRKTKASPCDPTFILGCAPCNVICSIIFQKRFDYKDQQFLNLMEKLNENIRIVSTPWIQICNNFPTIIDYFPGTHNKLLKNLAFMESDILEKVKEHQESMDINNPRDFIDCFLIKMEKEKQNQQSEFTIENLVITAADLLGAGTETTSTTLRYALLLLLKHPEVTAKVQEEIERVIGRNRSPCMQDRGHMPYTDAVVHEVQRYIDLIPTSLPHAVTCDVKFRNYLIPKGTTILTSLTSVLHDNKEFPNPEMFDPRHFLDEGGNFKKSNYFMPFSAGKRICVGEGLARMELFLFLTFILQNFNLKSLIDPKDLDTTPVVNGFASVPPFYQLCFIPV

[4] = biological target: Photinus pyralis (firefly) luciferase (Photinus pyralis, UniProt P08659); test: biochemical; type: biochemical
Photinus pyralis (firefly) luciferase, sequence (P08659 whole entry): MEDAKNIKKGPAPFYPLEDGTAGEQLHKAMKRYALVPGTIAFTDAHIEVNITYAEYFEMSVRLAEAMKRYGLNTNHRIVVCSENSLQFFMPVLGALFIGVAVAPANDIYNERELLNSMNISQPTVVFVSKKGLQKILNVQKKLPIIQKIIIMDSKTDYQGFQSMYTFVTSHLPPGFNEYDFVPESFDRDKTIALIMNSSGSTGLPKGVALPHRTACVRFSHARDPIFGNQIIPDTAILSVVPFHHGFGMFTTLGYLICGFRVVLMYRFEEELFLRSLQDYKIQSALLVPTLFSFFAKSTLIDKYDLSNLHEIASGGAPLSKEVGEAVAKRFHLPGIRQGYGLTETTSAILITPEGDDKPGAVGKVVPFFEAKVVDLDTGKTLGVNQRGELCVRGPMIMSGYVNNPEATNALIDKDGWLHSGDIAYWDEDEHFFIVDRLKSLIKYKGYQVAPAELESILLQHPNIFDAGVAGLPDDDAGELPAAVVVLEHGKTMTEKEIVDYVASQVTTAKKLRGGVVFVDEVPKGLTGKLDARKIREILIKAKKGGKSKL

CYP3A4 [5] = biological target: T4, CYP3A4 (Homo sapiens, UniProt P08684); test: biochemical
T4 sequence (P08684 whole entry): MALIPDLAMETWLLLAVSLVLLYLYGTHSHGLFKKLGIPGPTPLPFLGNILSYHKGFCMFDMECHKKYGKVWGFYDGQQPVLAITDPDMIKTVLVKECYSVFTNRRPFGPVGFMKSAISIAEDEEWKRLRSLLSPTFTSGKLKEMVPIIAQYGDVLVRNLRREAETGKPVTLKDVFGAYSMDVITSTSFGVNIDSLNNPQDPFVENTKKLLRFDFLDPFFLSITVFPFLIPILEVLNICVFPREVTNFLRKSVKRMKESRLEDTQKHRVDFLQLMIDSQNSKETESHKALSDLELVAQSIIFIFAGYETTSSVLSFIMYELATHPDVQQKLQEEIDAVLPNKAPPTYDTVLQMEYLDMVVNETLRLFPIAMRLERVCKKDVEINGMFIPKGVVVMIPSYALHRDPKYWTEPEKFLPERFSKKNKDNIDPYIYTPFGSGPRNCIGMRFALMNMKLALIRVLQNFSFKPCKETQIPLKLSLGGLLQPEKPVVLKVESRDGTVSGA

human CYP1A2 [6] = biological target: T1, human CYP1A2; conditions: for CYP1A2 Efficacy (in parenthesis): human
CYP3A4 [7] = biological target: T4, CYP3A4
human CYP2C19 [8] = biological target: T3, human CYP2C19; conditions: human
human CYP2C9 [9] = biological target: T2, human CYP2C9; conditions: human
[10] = CYP2C9 IC50 (half-maximal inhibitory concentration)
[11] = CYP2C19 IC50 (half-maximal inhibitory concentration)
[12] = CYP3A4 IC50 (half-maximal inhibitory concentration)
[13] = CYP1A2 IC50 (half-maximal inhibitory concentration)

With C=CC(=O)OCCn1c(=O)n(CCOC(=O)C=C)c(=O)n(CCOC(=O)C=C)c1=O the IC50 (human CYP1A2 [1]) was 58100 nM, the IC50 (human CYP2C9 [2]) was 35.7 µM and the “CYP2D6 IC50 (half-maximal inhibitory concentration)” value (human CYP2D6) was “Inactive”. For the same molecule, the IC50 (human CYP2C19 [3]) was 4.01 µM, the “Luciferase IC50 (half-maximal inhibitory concentration)” value [4] was “Inactive” and the IC50 (CYP3A4 [5]) was 0.25 µM.

COC(=O)N(C(=O)N1COC2(C(=O)OC)Cc3cc(Cl)ccc3C2=N1)c1ccc(OC(F)(F)F)cc1 (racemic) [(+-)-Indoxacarb] was tested, and the IC50 (human CYP2C9 [2]; [10]) was 4.76 µM, the “CYP2D6 IC50 (half-maximal inhibitory concentration)” value (human CYP2D6) was “Inactive” and the “CYP1A2 IC50 (half-maximal inhibitory concentration)” value (human CYP1A2 [6]) was “Inactive”. The IC50 (human CYP2C19 [3]; [11]) was 0.28 µM, the “Luciferase IC50 (half-maximal inhibitory concentration)” value [4] was “Inactive” and the IC50 (CYP3A4 [5]; [12]) was 6.03 µM.

O=C1c2ccccc2C(=O)c2c(Cl)cccc21 [1-Chloroanthraquinone] was tested, and the AC50 (human CYP1A2 [1]) was 50 nM, the IC50 (human CYP1A2 [1]) was 50 nM and the AC50 (human CYP2C9 [2]) was 12.6 µM. The IC50 (human CYP2C9 [2]) was 12.6 µM, the “CYP2D6 IC50 (half-maximal inhibitory concentration)” value (human CYP2D6) was “Inactive” and the AC50 (human CYP2C19 [3]) was 13.9 µM. For the same molecule, the IC50 (human CYP2C19 [3]) was 13.9 µM, the “Luciferase IC50 (half-maximal inhibitory concentration)” value [4] was “Inactive” and the AC50 (CYP3A4 [5]) was 2.37 µM.

With Oc1ccc2ccc3cccc4ccc1c2c34 [1-Hydroxypyrene] the “CYP3A4 Efficacy (in parenthesis)” value (CYP3A4 [7]) was 27.72 ± 10.43 (-84 ± 7) %, the “CYP2C19 Efficacy (in parenthesis)” value (human CYP2C19 [8]) was 15.71 ± 4.38 (-129 ± 16) % and the IC50 (human CYP1A2 [1]; [13]) was 830 nM. For the same molecule, the IC50 (human CYP2C9 [2]; [10]) was 35.6 µM, the “CYP2D6 IC50 (half-maximal inhibitory concentration)” value (human CYP2D6) was “Inactive” and the “CYP1A2 Efficacy (in parenthesis)” value (human CYP1A2 [6]) was 0.83 ± 0.11 (-98 ± 1) %. For the same molecule, the IC50 (human CYP2C19 [3]; [11]) was 15.7 µM, the IC50 [4] was 68.7 µM and the “CYP2C9 Efficacy (in parenthesis)” value (human CYP2C9 [9]) was 35.57 ± 0 (-80 ± 9) %. It also gave an IC50 (CYP3A4 [5]; [12]) of 27.7 µM.

For Brc1ccc(Oc2ccc(Br)cc2Br)c(Br)c1 [2,2'4,4'-Tetrabromodiphenyl ether], the “CYP3A4 Efficacy (in parenthesis)” value (CYP3A4 [7]) was 13.01 ± 6.86 (68 ± 8) %, the “CYP3A4 IC50 (half-maximal inhibitory concentration)” value (CYP3A4 [7]) was 13.01 ± 6.86 (68 ± 8) µM and the “CYP2C19 Efficacy (in parenthesis)” value (human CYP2C19 [8]) was 0.55 ± 0.43 (-128 ± 5) %. It also gave an AC50 (human CYP1A2 [1]; CYP1A2 AC50 (half-maximal activity concentration)) of 16800 nM, an IC50 (human CYP1A2 [1]; [13]) of 16800 nM and an AC50 (human CYP2C9 [2]; CYP2C9 AC50 (half-maximal activity concentration)) of 12.7 µM. For the same molecule, the “CYP2D6 IC50 (half-maximal inhibitory concentration)” value (human CYP2D6) was “Inactive”, the “CYP1A2 Efficacy (in parenthesis)” value (human CYP1A2 [6]) was 16.84 ± 7.26 (-69 ± 6) % and the AC50 (human CYP2C19 [3]; CYP2C19 AC50 (half-maximal activity concentration)) was 0.55 µM. The IC50 (human CYP2C19 [3]; [11]) was 0.55 µM, the IC50 [4] was 44 µM and the AC50 (CYP3A4 [5]; CYP3A4 AC50 (half-maximal activity concentration)) was 13 µM.

Nc1ccc2c3c(cccc13)-c1ccccc1-2 [3-Aminofluoranthene] was tested, and the IC50 (human CYP1A2 [1]; CYP1A2 IC50) was 130 nM, the IC50 (human CYP2C9 [2]; CYP2C9 IC50) was 34.7 µM and the “CYP2D6 IC50” value (human CYP2D6) was “Inactive”. The IC50 (human CYP2C19 [3]; CYP2C19 IC50) was 21.2 µM, the IC50 [4] was 27.8 µM and the IC50 (CYP3A4 [5]; CYP3A4 IC50) was 19.8 µM.

For Cc1ccc2cc3c(ccc4ccccc43)c3c2c1CC3 [3-Methylcholanthrene], the IC50 (human CYP1A2 [1]; CYP1A2 IC50) was 390 nM, the IC50 (human CYP2C9 [2]; CYP2C9 IC50) was 6.43 µM and the “CYP2D6 IC50” value (human CYP2D6) was “Inactive”. The IC50 (human CYP2C19 [3]; CYP2C19 IC50) was 22.4 µM, the IC50 [4] was 6.94 µM and the IC50 (CYP3A4 [5]; CYP3A4 IC50) was 8.02 µM.

In the case of Cc1c2ccccc2c(C)c2c1ccc1ccccc12 [7,12-Dimethylbenz(a)anthracene], the IC50 (human CYP1A2 [1]; CYP1A2 IC50) is reported as 500 nM, the IC50 (human CYP2C9 [2]; CYP2C9 IC50) is reported as 27.3 µM and the “CYP2D6 IC50” value (human CYP2D6) is reported as “Inactive”. For the same molecule, the IC50 (human CYP2C19 [3]; CYP2C19 IC50) was 6.09 µM, the IC50 [4] was 32.7 µM and the IC50 (CYP3A4 [5]; CYP3A4 IC50) was 22.6 µM.

Brc1c2ccccc2cc2ccccc12 [9-Bromoanthracene] was tested, and the “CYP3A4 Efficacy (in parenthesis)” value (CYP3A4 [7]) was 25.01 ± 9.91 (-59 ± 38) %, the “CYP2C19 Efficacy (in parenthesis)” value (human CYP2C19 [8]) was 26.26 ± 8.46 (-125 ± 5) % and the IC50 (human CYP1A2 [1]; [13]) was 510 nM. The IC50 (human CYP2C9 [2]; [10]) was 34.6 µM, the “CYP2D6 IC50 (half-maximal inhibitory concentration)” value (human CYP2D6) was “Inactive” and the “CYP1A2 Efficacy (in parenthesis)” value (human CYP1A2 [6]) was 0.51 ± 0.11 (-99 ± 4) %. The IC50 (human CYP2C19 [3]; [11]) was 26.3 µM, the IC50 [4] was 42.3 µM and the “CYP2C9 Efficacy (in parenthesis)” value (human CYP2C9 [9]) was 34.62 ± 2.26 (-73 ± 9) %. For the same molecule, the IC50 (CYP3A4 [5]; [12]) was 25 µM.

O=C1c2ccccc2-c2ccccc21 [9-Fluorenone] showed an AC50 (human CYP1A2 [1]) of 450 nM, an IC50 (human CYP1A2 [1]) of 450 nM and an AC50 (human CYP2C9 [2]) of 67.7 µM. For the same molecule, the IC50 (human CYP2C9 [2]) was 67.7 µM, the “CYP2D6 IC50 (half-maximal inhibitory concentration)” value (human CYP2D6) was “Inactive” and the AC50 (human CYP2C19 [3]) was 43.8 µM. For the same molecule, the IC50 (human CYP2C19 [3]) was 43.8 µM, the IC50 [4] was 67.7 µM and the AC50 (CYP3A4 [5]) was 10.4 µM.

With O=C1c2ccccc2Cc2ccccc21 [Anthrone] the “CYP3A4 Efficacy (in parenthesis)” value (CYP3A4 [7]) was 26.66 ± 4.8 (-63 ± 11) %, the “CYP2C19 Efficacy (in parenthesis)” value (human CYP2C19 [8]) was 15.72 ± 5.91 (-83 ± 4) % and the IC50 (human CYP1A2 [1]; [13]) was 440 nM. For the same molecule, the IC50 (human CYP2C9 [2]; [10]) was 12.6 µM, the “CYP2D6 IC50 (half-maximal inhibitory concentration)” value (human CYP2D6) was “Inactive” and the “CYP1A2 Efficacy (in parenthesis)” value (human CYP1A2 [6]) was 0.44 ± 0.07 (-99 ± 1) %. The IC50 (human CYP2C19 [3]; [11]) was 15.7 µM, the “Luciferase IC50 (half-maximal inhibitory concentration)” value [4] was “Inactive” and the “CYP2C9 Efficacy (in parenthesis)” value (human CYP2C9 [9]) was 12.58 ± 3.51 (-54 ± 8) %. The IC50 (CYP3A4 [5]; [12]) was 26.7 µM.

From paper PMC12155096 (International Journal of Molecular Sciences, 2025)
